The source of these data is US8563500B2, “Methods and compounds for treating diseases caused by reactive oxygen species” (Deutsches Krebsforschungszentrum Stiftung des Offentlichen …, priority 2007, dated 2013).

Test [1] concerns CD95L. As to the kind of experiment: Activation-induced CD95L expression, semi-quantitative RT-PCR and quantitative PCR, Jurkat cells. It is filed as cell-based, human. The settings on record: for reduction of CD95L induction, quantitative PCR: plate-bound anti-CD3 (TCR triggering).
For test [2], the system named is Jurkat J16-145 cells. The test is described as follows: Cellular ATP determination. The note with it: high concentrations of inhibitors, 2 h. Type of test: cell-based, human.
For test [3], the system named is Jurkat J16-145 cells. The test is described as follows: Activation-induced (PMA or anti-CD3) ROS generation, DCFDA oxidation by FACS. It is filed as cell-based, human.
The subject of test [4] is primary human T cells (day 6 T cells). The test is described as follows: Anti-CD3 induced ROS generation (DCFDA) in primary human T cells. Type of test: cell-based. The note with it: preactivated primary human T cells (day 6); anti-CD3 30 min.
For test [5], the system named is CD95L. The test is described as follows: Anti-CD3 induced CD95L expression in primary human T cells (PCR). It is filed as cell-based. The settings on record: day 6 T cells.
The subject of test [6] is CD95 receptor. As to the kind of experiment: Apoptosis induced by direct stimulation of the CD95 receptor, primary T cells. It is filed as cell-based, human. The settings on record: data not shown.
Test [7] concerns complex I. The settings on record: isolated mitochondria; reference 6; cited from earlier work.
Another test has as its system IL-2, IL-4, or TNF-alpha. The test is described as follows: Cytokine expression in activated T cells (RT-PCR). It is filed as cell-based, human.
The subject of test [8] is CD95 receptor. The test is described as follows: Apoptosis induced via direct stimulation of the CD95 receptor, Jurkat cells. Type of test: cell-based, human. The note with it: data not shown.
For test [9], the system named is primary human T cells (day 6 T cells). The test is described as follows: AICD in primary human T cells, specific cell death. It is filed as cell-based. The settings on record: plate-bound anti-CD3 24 h. On the procedure: FIG. 9. Primary human T cells depend on complex I-originated activation-induced ROS for CD95L expression and AICD. […] Cells were stained with DCFDA and MFI was measured by FACS. […] Next, RNA was isolated, reverse-transcribed, and amplified using CD95L- and actin-specific primers. C, T cells were transfected with 900 nM of scrambled- (ctr) or two different NDUFAF1-siRNA oligonucleotides (#1, #2). After 48 h, RNA was isolated, reverse-transcribed, and amplified using NDUFAF1- and actin-specific primers. D, 72 h after transfection with 900 nM of scrambled- (ctr) or NDUFAF1-siRNA oligonucleotides (#1, #2) primary human T were stimulated by plate-bound anti-CD3 antibodies for 30 min and oxidative signal was determined as in (A). […] (ii) For 1 h (F), to detect changes in CD95L expression (left panel semi quantitative PCR; right panel quantitative PCR). (iii) For 24 h (G) to assessed AICD by a drop in FCS/SSC index. Insert show T cells cotreated with or without CD95L neutralizing antibody (results were recalculated to “specific cell death”). H, Schematic diagram of TCR induced oxidative signalling.
Isolation of human peripheral T cells. […]
(§1) Assessment of cell death. […] Cell death was assessed by a drop in the forward-to-side-scatter (FSC/SSC) profile in comparison to living cells and recalculated to “specific cell death” as described (25).

Test [10] concerns Jurkat J16-145 cells. As to the kind of experiment: Activation-induced T cell death (AICD), specific cell death by FSC/SSC, Jurkat cells. The settings on record: PMA/ionomycin or plate-bound anti-CD3, 24 h. It is filed as cell-based, human. Here is the method:
as §1

Test [11] relates to complex I. The note with it: references 6, 18; cited from earlier work.
The mark [12] stands for this setting: Jurkat J16-145, anti-CD3 or PMA/ionomycin, 1 h.

Like-named read-outs stand apart in the source and are kept apart here.

For `CC[C@H]1/C=C/C=C/C[C@@H](C)[C@H](O)[C@@](C)(O)C(=O)[C@@H](C)[C@H](O)[C@@H](C)C(=O)[C@@H](C)[C@H](O)[C@@H](C)/C=C/C(=O)O[C@@H]2[C@H](C)[C@H](CC1)O[C@]1(CC[C@H](C)[C@H](C[C@@H](C)O)O1)[C@H]2C` [oligomycin], the “reduction of CD95L induction, quantitative PCR” value (“reduction of CD95L induction” below) in the test on CD95L [1] (Jurkat J16-145, 1 h) is “no effect”. Further, the “ATP depletion compared to rotenone and piericidin A” value in the test on Jurkat J16-145 cells [2] is “more efficient ATP depletion”. Further, the “effect on activation-induced (TCR- and PMA-induced) ROS generation, in words” value in the test on Jurkat J16-145 cells [3] (Jurkat J16-145, anti-CD3 or PMA, 30 min) is listed as “no effect or increased the oxidative signal”.
`COc1cc(C(C)=O)ccc1O` [apocynin]: the “effect on PMA-induced ROS generation / oxidative signal, in words” value in the test with Jurkat J16-145 cells [3] (Jurkat J16-145, PMA 30 min) was “only a moderate effect”.
On the same count and under the same terms, for `c1ccc2c(c1)[I+]c1ccccc1-2` [DPI] the value was “only a moderate effect”.
With `O=C(CC(=O)C(F)(F)F)c1cccs1` [TTFA, 1,1,1-thenoyl trifluoroacetone], the “effect on activation-induced (TCR- and PMA-induced) ROS generation, in words” value in the test on Jurkat J16-145 cells [3] is on record as “no effect or increased the oxidative signal”.
Turning to `C=C(C)[C@H]1Cc2c(ccc3c2O[C@@H]2COc4cc(OC)c(OC)cc4[C@@H]2C3=O)O1` [rotenone], the “effect on activation-induced CD95L expression (RT-PCR), in words” value (“effect … (RT-PCR), in words” below) in the test with CD95L [1] (setting [12]) was “abolished CD95L transcription almost completely”. Moreover, the “reduction of CD95L induction” value with CD95L [1] (Jurkat J16-145, 1 h) was “more than 80%”. The “effect on activation-induced (anti-CD3) oxidative signal, in words” value in test [4] is “exclusively inhibited”. The “effect on CD95L expression, in words” value in the test with CD95L [5] (anti-CD3 1 h) was “exclusively inhibited”. The “effect on activation-induced (TCR- and PMA-induced) ROS generation, in words” value in the test on Jurkat J16-145 cells [3] is given as “able to inhibit”.
Turning to `C/C=C(\C)[C@H](O)[C@H](C)/C=C(C)/C=C/C/C(C)=C/Cc1nc(OC)c(OC)c(O)c1C` [piericidin A], the “effect … (RT-PCR), in words” value in the test on CD95L [1] (setting [12]) is “abolished CD95L transcription almost completely”. In addition, the “effect on activation-induced (TCR- and PMA-induced) ROS generation, in words” value in the test with Jurkat J16-145 cells [3] is “able to inhibit”.
As for `CN(C)CCCn1cc(C2=C(c3c[nH]c4ccccc34)C(=O)NC2=O)c2ccccc21` [BIM, bisindolylmaleimide I], the “effect … (RT-PCR), in words” value in the test with CD95L [1] was “dose dependent inhibition of CD95L expression”.
As for `CN(C)C(=N)N=C(N)N` [metformin], the “apoptosis induced by direct stimulation of the CD95 receptor” value in the test on CD95 receptor [6] is recorded as “not affected”. Further, the “inhibition of complex I-induced ROS production” value in the test with complex I [7] is on record as “efficiently inhibit”. In the test on IL-2, IL-4, or TNF-alpha, the “expression of cytokines such as IL-2, IL-4, or TNF-alpha” value is recorded as “can be reduced”. Moreover, the “apoptosis induced via direct stimulation of the CD95 receptor” value with CD95 receptor [8] is listed as “not affected”. Besides, the “effect on AICD (cell death), in words” value in test [9] is listed as “nearly completely inhibited”. Besides, the “reduction of CD95L expression, quantitative PCR” value with CD95L [1] (Jurkat J16-145, PMA/ionomycin, 1 h) amounted to 50%. In addition, the “effect … (RT-PCR), in words” value in the test on CD95L [1] (setting [12]) is “inhibition of CD95L expression”. For the same compound, in the test on CD95L [1] (Jurkat J16-145, 1 h), the “reduction of CD95L induction” value is reported as “up to 80%”. Besides, the “effect on activation-induced (anti-CD3) oxidative signal, in words” value in [4] is “inhibits the anti-CD3 induced oxidative signal”. In the test with Jurkat J16-145 cells [10], the “effect on AICD, in words” value is on record as “drastically reduced AICD”. Besides, in the test on CD95L [5] (plate-bound anti-CD3 1 h), the “inhibition of induction of CD95L expression” value is “up to 70%”. For the same compound, in the test with complex I [11], the “inhibition of complex I” value is on record as “mildly inhibits”. The “effect on PMA-induced ROS generation / oxidative signal, in words” value in the test with Jurkat J16-145 cells [3] is on record as “diminished oxidative signal”.
